Measurements published in patent US20190247353A1, “ACNE STRAIN-SELECTIVE ANTIBACTERIAL AGENT” (MOMOTANI JUNTENKAN CO., LTD., priority 2016, published 2019).
In brackets after ≈: the same amount, converted by molar mass. Like-named read-outs stand apart in the source and are kept apart here.

Key:
Type in all cases: cell-based, Propionibacterium acnes
[1] = tested on: HL053PA1 strain (RT4) and HL043PA1 strain (RT5) versus HL110PA3 strain (RT6); experiment: Strain-selective antibacterial activity (average of MICRT6/MICRT4 and MICRT6/MICRT5)
Excerpt: Herein, “acne strain-selective antibacterial activity” or “strain-selective antibacterial activity” means an index indicating better inhibition of growth of a dominant strain in acne patients compared to that of a dominant strain in healthy subjects. It is expressed by the average value of the values (MICRT6/MICRT4, and MICRT6/MICRTS) obtained by dividing the minimum inhibitory concentration (MIC) of an object substance with respect to the dominant strain in healthy subjects (RT6 strain) (MICRT6) respectively by the MIC of the object substance with respect to the dominant strain in acne patients (RT4 strain) (MICRT4), and by the MIC of the object substance with respect to the dominant strain in acne patients (RT5 strain) (MICRT5).
The strain-selective antibacterial activity of each test substance (Table 2, right-most column) was evaluated based on the following rating criteria (Table 3). When the strain-selective antibacterial activity is indicated by a numerical range, the rating was based on the minimum value thereof.

HL110PA3 strain (RT6) [2] = experiment: MIC by broth microdilution method, HL110PA3 strain; conditions: for MIC: Cutibacterium acnes, 48 h; for MIC against acne bacterium strain HL110PA3 strain (RT6): monoacylglycerols, Example 3, method as Example 1
Method: (§1) An MIC is measured herein according to the broth microdilution method which is the standard method of Japanese Society of Chemotherapy.
(§2) The antibacterial activity of a test substance was determined based on the minimum inhibitory concentration (MIC). An MIC was measured according to the broth microdilution method which is the standard method of Japanese Society of Chemotherapy.
(§3) One-loopful of each acne bacterium strain listed in Table 1 was scraped off and inoculated into 5 mL of a GAM broth slant agar medium (pH 7.0, Nissui Pharmaceutical Co., Ltd.).
(§4) The inoculated acne bacterium strain was precultured at 37° C. in a nitrogen atmosphere (anaerobic condition) for 48 hours. The precultured microbial cells were diluted in a modified GAM broth liquid medium (pH 6.0) to a concentration of 5.0×10^4 cfu/mL (viable cell count per OD660=1 is 2.0×10^9 cfu/mL), to prepare strain suspensions.
(§5) Each fatty acid (Tokyo Chemical Industry Co., Ltd.) listed in Table 2 was dissolved in dimethylsulfoxide (DMSO) as a solvent such that the concentration became 10,000 μg/mL, and used as a test substance.
(§6) Each of strain suspensions (5.0×10^4 cfu/mL) was aliquoted in a 96-well round bottom microplate, each of the test substance (fatty acid concentration 10,000 μg/mL) was added at a 1/10 volume to the aliquot and mixed to prepare measurement samples (fatty acid concentration: 1,000 μg/mL). Measurement samples in 2-fold dilution series were prepared using the strain suspension (fatty acid concentration from 0.48 to 1,000 μg/mL).
(§7) […] The presence or absence of a precipitation of test microbial cells after the incubation was examined and the minimum concentration at which the precipitation of microbial cells […] was regarded as the MIC (μg/mL) of the test substance against the acne bacterium strain.

HL053PA1 strain (RT4) = experiment: MIC by broth microdilution method, HL053PA1 strain; conditions: for MIC: Cutibacterium acnes; for MIC against acne bacterium strain HL053PA1 strain (RT4): monoacylglycerols, Example 3, method as Example 1
Method: as §1, §2, §3, §4, §5, §6, §7

HL043PA1 strain (RT5) = experiment: MIC by broth microdilution method, HL043PA1 strain; conditions: for MIC: Cutibacterium acnes; for MIC against acne bacterium strain HL043PA1 strain (RT5): monoacylglycerols, Example 3, method as Example 1
Method: as §1, §2, §3
The inoculated acne bacterium strain was precultured at 37° C. in a nitrogen atmosphere (anaerobic condition) for 48 hours. […]
as §5, §6
The measurement samples were incubated under an anaerobic condition at 37° C. for 2 days. The presence or absence of a precipitation of test microbial cells after the incubation was examined and the minimum concentration at which the precipitation of microbial cells […] was regarded as the MIC (μg/mL) of the test substance against the acne bacterium strain.

HL110PA3 strain (RT6) [3] = experiment: MIC by broth microdilution method, HL110PA3 strain; conditions: Cutibacterium acnes; control antibiotics, Comparative Example 2, method as Example 1; LOD = MIC <0.48 ng/mL; read-out: MIC against acne bacterium strain HL110PA3 strain (RT6)
[4] = pH 6.0 modified GAM broth, anaerobic, 37° C., 2 days (Example 1), read-out: MIC against acne bacterium strain HL110PA3 strain (RT6)
[5] = 48 h, pH 6.0 modified GAM broth, anaerobic, 37° C., 2 days (Example 1), read-out: MIC against acne bacterium strain HL053PA1 strain (RT4)
[6] = 48 h, pH 6.0 modified GAM broth, anaerobic, 37° C., 2 days (Example 1), read-out: MIC against acne bacterium strain HL043PA1 strain (RT5)
[7] = control antibiotics, Comparative Example 2, for LOD calculated using 0.48 ng/mL as MIC of the RT6 strain
[8] = control antibiotics, Comparative Example 2, method as Example 1, read-out: MIC against acne bacterium strain HL053PA1 strain (RT4)
[9] = control antibiotics, Comparative Example 2, method as Example 1, read-out: MIC against acne bacterium strain HL043PA1 strain (RT5)

SMILES | MIC (HL110PA3 strain (RT6) [2]; [4]) [µg/mL] | MIC (HL053PA1 strain (RT4); [5]) [µg/mL] | MIC (HL043PA1 strain (RT5); [6]) [µg/mL] | MIC against acne bacterium strain HL110PA3 strain (RT6) (HL110PA3 strain (RT6) [2]) [µg/mL] | MIC against acne bacterium strain HL053PA1 strain (RT4) (HL053PA1 strain (RT4)) [µg/mL] | MIC against acne bacterium strain HL043PA1 strain (RT5) (HL043PA1 strain (RT5)) [µg/mL] | Strain-selective antibacterial activity ([1]; pH 6.0 (Example 1)) | Strain-selective antibacterial activity ([1]; monoacylglycerols, Example 3) | also measured
CCCCCCCCCC(=O)O [Capric acid (C10:0), Capric acid, reference compound] | 250 (≈ 1450 µM) | 500 (≈ 2900 µM) | 500 (≈ 2900 µM) |  |  |  | 0.50 |  | 
CCCCCC(=O)O [Caproic acid (C6:0), Caproic acid, reference compound] |  |  |  |  |  |  | 1.0 |  | MIC (HL110PA3 strain (RT6) [2]; pH 6, read-out: MIC against acne bacterium strain HL110PA3 strain (RT6)): 62.5 µg/mL (≈ 538 µM); MIC (HL053PA1 strain (RT4); 48 h, pH 6, read-out: MIC against acne bacterium strain HL053PA1 strain (RT4)): 62.5 µg/mL (≈ 538 µM); MIC (HL043PA1 strain (RT5); 48 h, pH 6, read-out: MIC against acne bacterium strain HL043PA1 strain (RT5)): 62.5 µg/mL (≈ 538 µM)
CCCCCCCC(=O)O [Caprylic acid (C8:0), Caprylic acid, reference compound] | 125 (≈ 867 µM) | 250 (≈ 1730 µM) | 250 (≈ 1730 µM) |  |  |  | 0.50 |  | 
CCC[C@@H]1C[C@@H](C(=O)N[C@@H]([C@H]2O[C@H](SC)[C@H](O)[C@@H](O)[C@H]2O)[C@H](C)Cl)N(C)C1 [Clindamycin, reference compound] |  |  |  |  |  |  |  |  | Strain-selective antibacterial activity [1, 7]: 7.5 × 10^−4; MIC (HL110PA3 strain (RT6) [3]): 0.031 µg/mL (≈ 0.0729 µM); MIC (HL053PA1 strain (RT4); [8]): 31 µg/mL (≈ 72.9 µM); MIC (HL043PA1 strain (RT5); [9]): 63 µg/mL (≈ 148 µM)
C[C@H]1c2cccc(O)c2C(=O)C2=C(O)[C@]3(O)C(=O)C(C(N)=O)=C(O)[C@@H](N(C)C)[C@@H]3[C@@H](O)[C@@H]21 [Doxycycline, reference compound] |  |  |  |  |  |  |  |  | Strain-selective antibacterial activity [1, 7]: 3.6 × 10^−4; MIC (HL110PA3 strain (RT6) [3]): 0.00048 µg/mL (≈ 0.00108 µM); MIC (HL053PA1 strain (RT4); [8]): 0.98 µg/mL (≈ 2.21 µM); MIC (HL043PA1 strain (RT5); [9]): 2 µg/mL (≈ 4.5 µM)

Now from value to compound, other results behind:

MIC (HL110PA3 strain (RT6) [2]; [4]) [µg/mL] | MIC (HL053PA1 strain (RT4); [5]) [µg/mL] | MIC (HL043PA1 strain (RT5); [6]) [µg/mL] | MIC against acne bacterium strain HL110PA3 strain (RT6) (HL110PA3 strain (RT6) [2]) [µg/mL] | MIC against acne bacterium strain HL053PA1 strain (RT4) (HL053PA1 strain (RT4)) [µg/mL] | MIC against acne bacterium strain HL043PA1 strain (RT5) (HL043PA1 strain (RT5)) [µg/mL] | SMILES | Strain-selective antibacterial activity ([1]; pH 6.0 (Example 1)) | Strain-selective antibacterial activity ([1]; monoacylglycerols, Example 3) | also measured
125 (≈ 960 µM) | 125 (≈ 960 µM) | 125 (≈ 960 µM) |  |  |  | CCCCCCC(=O)O [Heptanoic acid (C7:0), Heptanoic acid, reference compound] | 1.0 |  | 
15.6 (≈ 77.9 µM) | 15.6 (≈ 77.9 µM) | 31.3 (≈ 156 µM) |  |  |  | CCCCCCCCCCCC(=O)O [Lauric acid (C12:0), Lauric acid, reference compound] |  |  | 
 |  |  | >1000 | 500 (≈ 1650 µM) | 500 (≈ 1650 µM) | CCCCCCCCCCCCCC(=O)OCC(O)CO (stereo not drawn) [Monomyristin] |  | >2.0 | 
 |  |  | 1000 (≈ 3030 µM) | 250 (≈ 756 µM) | 31.3 (≈ 94.7 µM) | CCCCCCCCCCCCCCCC(=O)OCC(O)CO (stereo not drawn) [Monopalmitin] |  | 18 | 
 |  |  | 62.5 (≈ 197 µM) | 15.6 (≈ 49.3 µM) | 7.81 (≈ 24.7 µM) | CCCCCCCCCCCCCCC(=O)OCC(O)CO (stereo not drawn) [Monopentadecanoin] |  | 6.0 | 
